Experiments:
ACP [1] = conditions: small plot field trial, cited from earlier work
[2] = system: neuron 2A (rhinarial plate on flagellomere 2); assay: single-sensillum electrophysiology, odor response of neuron 2A; assay type: cell-based, Diaphorina citri; conditions: Table 1; odor diluted to 1%, 50 μL in cartridge; also: key: 0, no response; +, >50 spikes/second; ++, >100 spikes/second; +++, >150 spikes/second
[3] = system: neuron 6B (rhinarial plate on flagellomere 6); assay: single-sensillum electrophysiology, odor response of neuron 6B; assay type: cell-based, Diaphorina citri; conditions: Table 1; odor diluted to 1%, 50 μL in cartridge
[4] = system: neuron 4A (rhinarial plate on flagellomere 4); assay: single-sensillum electrophysiology, odor response of neuron 4A; assay type: cell-based, Diaphorina citri; conditions: Table 1; odor diluted to 1%, 50 μL in cartridge
[5] = system: neuron 7A (rhinarial plate on flagellomere 7); assay: single-sensillum electrophysiology, odor response of neuron 7A; assay type: cell-based, Diaphorina citri; conditions: Table 1; odor diluted to 1%, 50 μL in cartridge; also: key: 0, no response; +, >50 spikes/second; ++, >100 spikes/second; +++, >150 spikes/second
[6] = system: neuron 6A (rhinarial plate on flagellomere 6); assay: single-sensillum electrophysiology, odor response of neuron 6A; assay type: cell-based, Diaphorina citri; conditions: Table 1; odor diluted to 1%, 50 μL in cartridge
[7] = system: neuron 2C (rhinarial plate on flagellomere 2); assay: single-sensillum electrophysiology, odor response of neuron 2C; assay type: cell-based, Diaphorina citri; conditions: Table 1; odor diluted to 1%, 50 μL in cartridge
[8] = system: neuron 4B (rhinarial plate on flagellomere 4); assay type: cell-based, Diaphorina citri; conditions: Table 1; odor diluted to 1%, 50 μL in cartridge
[9] = system: neuron 7C (rhinarial plate on flagellomere 7); assay: single-sensillum electrophysiology, odor response of neuron 7C; assay type: cell-based, Diaphorina citri; conditions: Table 1; odor diluted to 1%, 50 μL in cartridge
[10] = system: neuron 4C (rhinarial plate on flagellomere 4); assay: single-sensillum electrophysiology, odor response of neuron 4C; assay type: cell-based, Diaphorina citri; conditions: Table 1; odor diluted to 1%, 50 μL in cartridge
ACP [11] = conditions: cited from earlier work
[12] = system: neuron 7B (rhinarial plate on flagellomere 7); assay type: cell-based, Diaphorina citri; conditions: Table 1; odor diluted to 1%, 50 μL in cartridge
[13] = system: neuron 6C (rhinarial plate on flagellomere 6); assay: single-sensillum electrophysiology, odor response of neuron 6C; assay type: cell-based, Diaphorina citri; conditions: Table 1; odor diluted to 1%, 50 μL in cartridge
[14] = system: neuron 2B (rhinarial plate on flagellomere 2); assay: single-sensillum electrophysiology, odor response of neuron 2B; assay type: cell-based, Diaphorina citri; conditions: Table 1; odor diluted to 1%, 50 μL in cartridge

CSSC [DMDS, dimethyl disulfide]
up to three: duration of reduction in ACP densities (ACP [1])
65%: reduction in ACP densities (ACP [1]; low psyllid density area (average 3-4 ACP/10 trees))

COC(=O)c1ccccc1O [methyl salicylate]
+ (+, >50 spikes/second): odor response (frequency of action potentials during stimulus minus baseline), 6B [3] | odor response (frequency of action potentials during stimulus minus baseline), 4B [8] | odor response (frequency of action potentials during stimulus minus baseline), 7B [12]
repellency: ACP behavior in laboratory behavioral assays (ACP [11]; high amounts, as released by citrus plants under physical stress)
attracted: ACP behavior in lab behavior assays (ACP [11]; at lower concentration)
0: odor response (frequency of action potentials during stimulus minus baseline), 2A [2] | odor response (frequency of action potentials during stimulus minus baseline), 4A [4] | odor response (frequency of action potentials during stimulus minus baseline), 7A [5] | odor response (frequency of action potentials during stimulus minus baseline), 6A [6] | odor response (frequency of action potentials during stimulus minus baseline), 2C [7] | odor response (frequency of action potentials during stimulus minus baseline), 7C [9] | odor response (frequency of action potentials during stimulus minus baseline), 4C [10] | odor response (frequency of action potentials during stimulus minus baseline), 6C [13] | odor response (frequency of action potentials during stimulus minus baseline), 2B [14]

(−)-limonene
0: odor response (frequency of action potentials during stimulus minus baseline), 2A [2] | odor response (frequency of action potentials during stimulus minus baseline), 4A [4] | odor response (frequency of action potentials during stimulus minus baseline), 7A [5] | odor response (frequency of action potentials during stimulus minus baseline), 6A [6] | odor response (frequency of action potentials during stimulus minus baseline), 2C [7] | odor response (frequency of action potentials during stimulus minus baseline), 7C [9] | odor response (frequency of action potentials during stimulus minus baseline), 4C [10] | odor response (frequency of action potentials during stimulus minus baseline), 7B [12] | odor response (frequency of action potentials during stimulus minus baseline), 6C [13] | odor response (frequency of action potentials during stimulus minus baseline), 2B [14]
+ (+, >50 spikes/second): odor response (frequency of action potentials during stimulus minus baseline), 6B [3] | odor response (frequency of action potentials during stimulus minus baseline), 4B [8]

— patent US20180055032A1, “ODORS FOR PSYLLID TRAPPING, REPELLING AND CONTROL” (The Regents of the University of California, priority 2011, published 2018)
